ChEMBL document CHEMBL2157869, “N'-substituted-2'-O,3'-N-carbonimidoyl bridged macrolides: novel anti-inflammatory macrolides without antimicrobial activity” (J Med Chem, 2012)
The source made the active and inactive calls. No cut-off for these calls is given here.

Experiments:
[1] = Antiinflammatory activity in mouse splenocytes assessed as inhibition of LPS-induced IL-6 production in mouse splenocytes at 25 uM preincubated for 2 hrs prior to LPS challenge by sandwich ELISA; format: functional; conditions: Splenocyte
[2] = Half life in BALB/cJ mouse at 5 mg/kg, iv and 25 mg/kg, po; format: ADME, organism-based; conditions: in vivo
[3] = Antiinflammatory activity in mouse splenocytes assessed as inhibition of LPS-induced IL-6 production at 12 uM preincubated for 2 hrs prior to LPS challenge by sandwich ELISA; format: functional; conditions: Splenocyte
[4] = Clearance in Sprague-Dawley rat at 2 mg/kg, iv and 10 mg/kg, po; format: ADME, organism-based; conditions: in vivo
Mus musculus [5] = assay: Antiinflammatory activity in ip dosed BALB/cJ mouse assessed as decrease in LPS-induced neutrophil number in bronchoalveolar lavage fluid administered 2 hrs prior to LPS challenge measured after 24 hrs post LPS challenge; format: functional, organism-based; conditions: Lung
[6] = Cytotoxicity against human THP1 cells assessed as cell viability at 50 uM after 24 hrs by MTT assay; format: cell-based, THP-1; conditions: read-out: Activity
Streptococcus pyogenes = assay: Antibacterial activity against Streptococcus pyogenes ATCC 700294 by CLSI broth microdilution method; format: functional
[7] = Volume of distribution at steady state in Sprague-Dawley rat at 2 mg/kg, iv and 10 mg/kg, po; format: ADME, organism-based; conditions: in vivo, read-out: Vdss
Cytochrome P450 3A4 [8] = molecular target: T1, Cytochrome P450 3A4 (Homo sapiens, UniProt P08684)
T1 sequence (P08684 whole entry): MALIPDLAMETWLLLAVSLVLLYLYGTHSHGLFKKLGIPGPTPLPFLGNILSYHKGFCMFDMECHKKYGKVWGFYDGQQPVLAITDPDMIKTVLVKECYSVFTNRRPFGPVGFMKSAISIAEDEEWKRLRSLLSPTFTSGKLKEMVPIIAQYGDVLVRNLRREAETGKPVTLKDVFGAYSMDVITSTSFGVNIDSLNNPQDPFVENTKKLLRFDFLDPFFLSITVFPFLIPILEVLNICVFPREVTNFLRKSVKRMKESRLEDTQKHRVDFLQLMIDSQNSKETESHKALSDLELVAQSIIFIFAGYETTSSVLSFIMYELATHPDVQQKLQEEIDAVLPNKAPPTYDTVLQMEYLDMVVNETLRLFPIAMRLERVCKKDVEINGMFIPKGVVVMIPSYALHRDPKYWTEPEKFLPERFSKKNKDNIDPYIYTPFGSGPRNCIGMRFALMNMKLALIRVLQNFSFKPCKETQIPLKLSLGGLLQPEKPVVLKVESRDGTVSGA
Description: Inhibition of human recombinant CYP3A4 using 7-BQ as substrate preincubated for 5 to 10 mins before substrate addition

Mus musculus [9] = assay: Antiinflammatory activity in BALB/cJ mouse assessed as inhibition of LPS-induced CXCL1 production in lung homogenates at 200 mg/kg, ip administered 2 hrs prior to LPS challenge; format: functional, organism-based; parameters: dose 200 mg/kg
Mus musculus [10] = assay: Antiinflammatory activity in ip dosed BALB/cJ mouse assessed as decrease in LPS-induced total cell number in bronchoalveolar lavage fluid administered 2 hrs prior to LPS challenge measured after 24 hrs post LPS challenge; format: functional, organism-based; conditions: Lung
[11] = Antiinflammatory activity in mouse splenocytes assessed as inhibition of LPS-induced IL-6 production at 50 uM preincubated for 2 hrs prior to LPS challenge by sandwich ELISA; format: functional; conditions: Splenocyte
[12] = Volume of distribution at steady state in BALB/cJ mouse at 5 mg/kg, iv and 25 mg/kg, po; format: ADME, organism-based; conditions: in vivo, read-out: Vdss
Cytochrome P450 3A4 [13] = molecular target: T1, Cytochrome P450 3A4; remark: listed apart in the source
Description: Inhibition of human recombinant CYP3A4 using DEF as substrate preincubated for 5 to 10 mins before substrate addition

[14] = Clearance in BALB/cJ mouse at 5 mg/kg, iv and 25 mg/kg, po; format: ADME, organism-based; conditions: in vivo
[15] = Half life in Sprague-Dawley rat at 2 mg/kg, iv and 10 mg/kg, po; format: ADME, organism-based; conditions: in vivo
[16] = Oral bioavailability in Sprague-Dawley rat at 10 mg/kg; format: ADME, organism-based; conditions: in vivo
Mus musculus [17] = assay: Antiinflammatory activity in BALB/cJ mouse assessed as inhibition of LPS-induced GM-CSF production in lung homogenates at 200 mg/kg, ip administered 2 hrs prior to LPS challenge; format: functional, organism-based; parameters: dose 200 mg/kg
Mus musculus [18] = assay: Antiinflammatory activity in BALB/cJ mouse assessed as inhibition of LPS-induced CCL2 production in lung homogenates at 200 mg/kg, ip administered 2 hrs prior to LPS challenge; format: functional, organism-based; parameters: dose 200 mg/kg
Mus musculus [19] = assay: Antiinflammatory activity in BALB/cJ mouse assessed as inhibition of LPS-induced IL-1beta production in lung homogenates at 200 mg/kg, ip administered 2 hrs prior to LPS challenge; format: functional, organism-based; parameters: dose 200 mg/kg
Mus musculus [20] = assay: Antiinflammatory activity in BALB/cJ mouse assessed as inhibition of LPS-induced CXCL2 production in lung homogenates at 200 mg/kg, ip administered 2 hrs prior to LPS challenge; format: functional, organism-based; parameters: dose 200 mg/kg
Mus musculus [21] = assay: Antiinflammatory activity in BALB/cJ mouse assessed as inhibition of LPS-induced IL-6 production in lung homogenates at 200 mg/kg, ip administered 2 hrs prior to LPS challenge; format: functional, organism-based; parameters: dose 200 mg/kg
Mus musculus [22] = assay: Antiinflammatory activity in BALB/cJ mouse assessed as inhibition of LPS-induced TNFalpha level in lung homogenates at 200 mg/kg, ip administered 2 hrs prior to LPS challenge; format: functional, organism-based; parameters: dose 200 mg/kg
[23] = Oral bioavailability in BALB/cJ mouse at 25 mg/kg; format: ADME, organism-based; conditions: in vivo

- half-life [2]: 17.3 h
- clearance [4]: 12.3 mL/min/kg
- MIC (Streptococcus pyogenes): > 64 µg/mL
- Vd [7]: 8.6 L/kg
- IC50 (Cytochrome P450 3A4 [8]): > 10 µM
- Vd [12]: 23 L/kg
- IC50 (Cytochrome P450 3A4 [13]): 7.8 µM
- clearance [14]: 19.8 mL/min/kg
- half-life [15]: 20.3 h
- bioavailability [16]: 33%
- bioavailability [23]: 62%
Compound: CC[C@H]1OC(=O)[C@H](C)[C@@H](O[C@H]2C[C@@](C)(OC)[C@@H](O)[C@H](C)O2)[C@H](C)[C@@H](O[C@@H]2O[C@H](C)C[C@H]3[C@H]2O/C(=N\C(C)C)N3C)[C@](C)(O)C[C@@H](C)CN(C)[C@H](C)[C@@H](O)[C@]1(C)O
- inhibition at 25 µM [1]: 90%
- inhibition at 12 µM [3]: 79%
- Activity (Mus musculus [5]): Dose-dependent effect
- viability at 24 h, 50 µM [6]: 9%
- inhibition (Mus musculus [9]): Active
- Activity (Mus musculus [10]): Dose-dependent effect
- inhibition at 50 µM [11]: 95%
- inhibition (Mus musculus [17]): Active
- inhibition (Mus musculus [18]): Active
- inhibition (Mus musculus [19]): Active
- inhibition (Mus musculus [20]): Active
- inhibition (Mus musculus [21]): Active
- inhibition (Mus musculus [22]): Active
